This note sets out measurements from patent US11192888B2, “Antibacterial compounds” (priority 2017, dated 2021).

The test system of one data set is P. aeruginosa PAO1. The settings on record: for activity against P. aeruginosa in comparison to the Dha containing compound 3: PAO1; for IC50 / % Growth inhibition at 100 μM: PAO1, 13 h.
A further data set deals with B. multivorans ATCC17616. The settings on record: ATCC17616, 25 h.
For data set [1], the system named is clinical isolates and one wild-type strain of P. aeruginosa. The data set can be described thus: Growth of P. aeruginosa clinical isolates and wild-type strain with compounds (FIG. 1). It is filed as cell-based, Pseudomonas aeruginosa. Particulars: isolates W4, W14, W23, W46 and PAO1; MH media, 13 hours (FIG. 1). The procedure:
FIGS. 1a and 1b are graphs showing the effects of varying concentrations of compounds 2 and 3 according to the invention on the growth of different strains of P. aeruginosa in Müller-Hinton (MH) media, after 13 hours.
The antibacterial activity of compounds 2 and 3 were tested against clinical isolates and one wild-type strain of P. aeruginosa displaying varying antibiotic sensitivity.
The antibacterial activity of compounds 2 and 3 were tested against these clinical isolates and one wild-type strain of P. aeruginosa.

Data set [2] deals with Clostridium difficile 630Δerm. The settings on record: 13 h.
The subject of a further data set is Strep. pyogenes. Particulars: 13 h.
For the next data set, the system named is Strep. agalactiae. Particulars: 13 h.
The conditions of data set [3]: amide bond, 24-membered ring, PyBOP/HOBt/DIPEA, 0.5 mM.
Data set [4] has as its system C. difficile ATCC 43255 (aka VPI 10463; ribotype 087). The data set can be described thus: Mouse model of C. difficile-associated disease. It is filed as in vivo, C57BL/6 mice.

SMILES strings stand for the structures. Read-outs that look alike come from different tables or passages of the source. *1 amine or outer side, *2 acyl side, *3 side chain or, on linkers, in order; H or OH if unused. Where a SMILES comes first, the peptide text is derived from it. [ ]: non-standard residue; d: D form. dAla(ψthiazole) = C[C@@H](N[*:1])c1nc(C(=O)[*:2])cs1; Trp(4-Br) = N[C@@H](Cc1c[nH]c2cccc(Br)c12)C(=O)O; Trp(4-Cl) = N[C@@H](Cc1c[nH]c2cccc(Cl)c12)C(=O)O; Trp(4-OMe) = COc1cccc2[nH]cc(C[C@H](N)C(=O)O)c12; X1 = O=C(/C(=C/c1ccccc1)N[*:1])[*:2]; X2 = CC(C)/C=C(\N[*:1])C(=O)[*:2]; ΔVal = CC(C)=C(N)C(=O)O; Dha = C=C(N)C(=O)O; Sar = CNCC(=O)O

Broadly, the IC50 is the concentration that inhibits the measured activity by half. A low value points to greater potency in that assay. Consider `CC(C)/C=C1\NC(=O)[C@@H](C)NC(=O)CNC(=O)[C@H](Cc2c[nH]c3cccc(Br)c23)NC(=O)[C@H](Cc2c[nH]c3ccccc23)NC(=O)c2csc(n2)[C@@H](C)NC(=O)CN(C)C1=O` [Compound 14, Cyclo[D-Ala-Thz-Trp-Trp(4-Br)-Gly-D-Ala-Dhl-Sar]] (cyclo(G[dA][X2][Sar][dAla(ψthiazole)]W[Trp(4-Br)])), for which, in the data set with P. aeruginosa PAO1, the “activity against P. aeruginosa in comparison to the Dha containing compound 3” value (“activity against P. aeruginosa” for short) is reported as “dramatic loss in activity”, the IC50 was over 100 µM and the “% Growth inhibition at 100 μM” value was 40.1 ± 6.8%. In the data set on B. multivorans ATCC17616, this molecule had an IC50 of 0.98 ± 0.1 µM.

On to `CC(C)=C1NC(=O)[C@@H](C)NC(=O)CNC(=O)[C@H](Cc2c[nH]c3cccc(Br)c23)NC(=O)[C@H](Cc2c[nH]c3ccccc23)NC(=O)c2csc(n2)[C@@H](C)NC(=O)CN(C)C1=O` [Compound 13, Cyclo[D-Ala-Thz-Trp-Trp(4-Br)-Gly-D-Ala-Dhv-Sar]] (cyclo(G[dA][ΔVal][Sar][dAla(ψthiazole)]W[Trp(4-Br)])), for which, in the data set with P. aeruginosa PAO1, the “activity against P. aeruginosa” value is given as “did not result in a notable change in activity”, 12.2 ± 0.2 µM corresponded to half-maximal inhibition (IC50) and the “% Growth inhibition at 100 μM” value is reported as 85.1 ± 3.4%. The molecule also gave an IC50 in the data set with B. multivorans ATCC17616 of 1.54 ± 0.2 µM.

As to `C=C1NC(=O)[C@@H](C)NC(=O)CNC(=O)[C@H](Cc2c[nH]c3cccc(Cl)c23)NC(=O)[C@H](Cc2c[nH]c3ccccc23)NC(=O)c2csc(n2)[C@@H](C)NC(=O)CN(C)C1=O` [Compound 2, Cyclo[D-Ala-Thz-Trp-Trp(4-Cl)-Gly-D-Ala-Dha-Sar]] (cyclo([Dha][Sar][dAla(ψthiazole)]W[Trp(4-Cl)]G[dA])), the “susceptibility of the isolates to the compound” value in data set [1] was “equally susceptible”. Further, the IC50 in the data set with P. aeruginosa PAO1 is 16.8 ± 2.9 µM; in the data set with B. multivorans ATCC17616 it was 2.9 ± 2.5 µM; in data set [2], 0.18 ± 0.03 µM; in the data set with Strep. pyogenes it was over 100 µM; with Strep. agalactiae it was over 100 µM. The “% Growth inhibition at 100 μM” value in the data set on P. aeruginosa PAO1 was 87.0 ± 1.0%.

For `C[C@H]1NC(=O)CNC(=O)[C@H](Cc2c[nH]c3cccc(Br)c23)NC(=O)[C@H](Cc2c[nH]c3ccccc23)NC(=O)c2csc(n2)[C@@H](C)NC(=O)CN(C)C(=O)/C(=C/c2ccccc2)NC1=O` [Compound 12, Cyclo[D-Ala-Thz-Trp-Trp(4-Br)-Gly-D-Ala-Dhp-Sar]] (cyclo(G[dA][X1][Sar][dAla(ψthiazole)]W[Trp(4-Br)])), in the data set with P. aeruginosa PAO1, the “activity against P. aeruginosa” value was “dramatic loss in activity”, the IC50 is over 100 µM and the “% Growth inhibition at 100 μM” value was found to be 20.1 ± 5.4%. 1.1 ± 0.2 µM corresponded to half-maximal inhibition with B. multivorans ATCC17616 (IC50).

With `C=C1NC(=O)[C@@H](C)NC(=O)CNC(=O)[C@H](Cc2c[nH]c3cccc(Br)c23)NC(=O)[C@H](Cc2c[nH]c3ccccc23)NC(=O)c2csc(n2)[C@@H](C)NC(=O)CN(C)C1=O` [Cyclo[D-Ala-Thz-Trp-Trp(4-Br)-Gly-D-Ala-Dha-Sar]], in data set [3] (from H-dAla-Thz-Trp-Trp(4-Br)-Gly-dAla-Dha-Sar-OH?), the ring closure, yield after HPLC came out at 7%.

In the case of `C=C1NC(=O)[C@@H](C)NC(=O)CNC(=O)[C@H](Cc2c[nH]c3cccc(OC)c23)NC(=O)[C@H](Cc2c[nH]c3ccccc23)NC(=O)c2csc(n2)[C@@H](C)NC(=O)CN(C)C1=O` [Argyrin A, Cyclo[D-Ala-Thz-Trp-Trp(4-MeO)-Gly-D-Ala-Dha-Sar], reference compound] (cyclo(W[Trp(4-OMe)]G[dA][Dha][Sar][dAla(ψthiazole)])), the IC50 in the data set with P. aeruginosa PAO1 amounted to 19.8 ± 1.6 µM; in the data set on B. multivorans ATCC17616 it was 3.1 ± 1.7 µM. The “% Growth inhibition at 100 μM” value with P. aeruginosa PAO1 is listed as 82.6 ± 7.4%.

As for `c1cc(-c2nc3ccc(-c4ccc5nc(-c6ccncc6)[nH]c5c4)cc3[nH]2)ccn1` [SMT19969, reference compound], the Mean survival in data set [4] (20 mg/kg oral BD for 5 days) worked out at 88.00 h.

The molecule `C/C=C1\NC(=O)[C@@H](C)NC(=O)CNC(=O)[C@H](Cc2c[nH]c3cccc(Br)c23)NC(=O)[C@H](Cc2c[nH]c3ccccc23)NC(=O)c2csc(n2)[C@@H](COC)NC(=O)CN(C)C1=O` [Cyclo[D-Ser(OMe)-Thz-Trp-Trp(4-Br)-Gly-D-Ala-Dhb-Sar]] came in with a ring closure, yield after HPLC in data set [3] (from H-dSer(OMe)-Thz-Trp-Trp(4-Br)-Gly-dAla-Dhb-Sar-OH?) of 19%.

`C=C1NC(=O)[C@@H](C)NC(=O)CNC(=O)[C@H](Cc2c[nH]c3ccc(Cl)c(Cl)c23)NC(=O)[C@H](Cc2c[nH]c3ccccc23)NC(=O)c2csc(n2)[C@@H](C)NC(=O)CN(C)C1=O` [Cyclo[D-Ala-Thz-Trp-Trp(4,5-C1)-Gly-D-Ala-Dha-Sar]]: the ring closure, yield after HPLC in data set [3] (from H-dAla-Thz-Trp-Trp(4,5-Cl)-Gly-dAla-Dha-Sar-OH?) was determined as 2%.

On to `CCc1c(Cl)c(O)c(Cl)c(O)c1C(=O)O[C@H]1[C@H](O)[C@H](OC)[C@H](OC/C2=C\C=C\C[C@H](O)/C(C)=C/[C@H](CC)[C@@H](O[C@@H]3OC(C)(C)[C@@H](OC(=O)C(C)C)[C@H](O)[C@@H]3O)/C(C)=C/C(C)=C/C[C@@H]([C@@H](C)O)OC2=O)O[C@@H]1C` [Fidaxomicin, reference compound], for which the “survival to the end of the study at day-21 post-infection” value in data set [4] (2.5 mg/kg) is recorded as “survived to the end of the study”. In addition, the Mean survival in data set [4] (2.5 mg/kg oral BD for 5 days) is reported as 504.00 h.

Take `C=C1NC(=O)[C@@H](C)NC(=O)CNC(=O)[C@H](Cc2c[nH]c3cccc(Br)c23)NC(=O)[C@H](Cc2c[nH]c3ccccc23)NC(=O)c2csc(n2)[C@@H](COC)NC(=O)CN(C)C1=O` [Cyclo[D-Ser(OMe)-Thz-Trp-Trp(4-Br)-Gly-D-Ala-Dha-Sar]]: the ring closure, yield after HPLC in data set [3] (from H-dSer(OMe)-Thz-Trp-Trp(4-Br)-Gly-dAla-Dha-Sar-OH?) was determined as 6%.
